In the assay the test system is P388/0 cell lines. Kind of assay: Cytotoxicity assay, growth inhibition of P388/0 cells (Alamar Blue). The class given is cell-based. To be noted: 3 days incubation at 37° C., drug concentration inhibiting growth of cells by 50%. On the procedure: Cell Lines and Cytotoxicity Assays. Studies using P388/0 cell lines for IC50 (drug concentration inhibiting growth of cells by 50%) were maintained and conducted using standard procedures. Briefly, for IC50 determination, cells were seeded into the microwell plates at a density of 2×10^3 cells per 50 μL per well. Plates were incubated at 37° C. in a humidified incubator with 5% CO2 for 3 days. Cell growth was measured by the addition of 10 μL/well of Alamar Blue (Alamar Biosciences, Inc., Sacramento, Calif.) and the plates were incubated a further 4 hours at 37° C. The IC50 values for each compound were determined from absorbance versus dilution factor plots. All cell cultures for animal implantation were maintained at 37° C. in a humidified atmosphere of 5% CO2/[…] and subcultured once a week. All cell lines were periodically tested for Mycoplasma and were Mycoplasma free.

The compound `Nc1ccn([C@@H]2O[C@H](CO)[C@@H](O)[C@@H]2O)c(=O)n1` [Ara-C, ara-C] returned an IC50 of 10 nM.
